Source: patent EP0160115A1, “Growth stimulating food additive for animals” (SPOFA Spojené Podniky Pro Zdravotnickou Vyrobu, priority 1984, dated 1985)

How the values were obtained:
[1] = Fattening trial in early-weaned piglets with supplemented feed (4 weeks); type: in vivo, Ferkel; settings: 28 days; for Zuwachsindex (%): 100 ppm of each active in feed; for Zuwachsindex (%) / Ausnutzungsindex (%): control = 100,0; for Ausnutzungsindex (%), difference from control (in brackets) / Ausnutzungsindex (%) / Futtermittel-Ausnutzung, x̄: 100 ppm of each active; for Futtermittel-Ausnutzung, x̄: feed consumption per unit of gain, control 2,0
From the text: Frühabgesetzte Ferkel (Mischlinge des weißen edlen Landschweinsx Landrasse), die innerhalb einer Zeitspanne von 6 Tagen geboren waren, wurden aus der Gebärstation am S. Tage nach dem Absetzen in die Versuchsanlage gebracht. Die Ferkel wurden in Gruppen von je 8 bis 12 Tieren in Boxen untergebracht, die mit Rostböden versehen und durch hölzerne Bodenplatten beheizt waren. Nach 7 Tagen Anpassungszeit wurde der eigentliche Mastversuch begonnen. Über die gesamte Versuchsdauer von 4 Wochen wurde in allen Gruppen das Futtergemishc ? OS 2 für früh abgesetzte Ferkel verfüttert, das durch Zusatz der entsprechenden Prämixe jeweils mit folgenden Wirkstoffen angereichert wurde: • Gruppe I (Kontrollgruppe): Futtergemisch allein ohne Zusatz • Gruppe II: Cyadox, 100 ppm (100 mg pro kg Futtergemisch) • Gruppe III: Roh-Tylo-sin, 100 ppm reine Tylosinbase • Gruppe IV : Cyadox und Roh-Tylosin, je 100 ppm.
Zu Beginn des Versuchs und am Versuchsende (28. Tag) wurden die Tiere individuell gewogen. Der Futterverbrauch pro Gruppe wurde täglich ermittelt und daraus die Futtermittelausnutzung, dh der Futterverbrauch pro Zuwachseinheit, berechnet. Ebenso wurde der Allgemeinzustand der Tiere täglich verfolgt.

[2] = Weight gain of pre-fattening pigs on supplemented feed in a herd with bloody diarrhoea (14 days); type: in vivo, Vormastschweine; settings: 100 ppm of each active in feed; for Gesamtzuwachs x̄ (kg): control 8,95; for Endgewicht x̄ (kg): control 59,43; for Tageszuwachs: control 639; for Zuwachsindex (%): control = 100
From the text: Die Versuche wurden in einem Schweinemastbetrieb durchgeführt, bei dem ständig bei 5 bis 15 der Vormastschweine (Rasse BU x PC + L) von etwa 50 kg Gewicht, die in Koben zu 10 bis 15 Tieren untergebracht waren, blutige Durchfälle auftraten. Histologisch und mikrobiologisch wurde als Erreger der Durchfallerkrankung Vibrio coli festgestellt.
(§1) Die Versuchstiere wurden in 4 Gruppen aufgeteilt und während der gesamten Versuchsdauer von 14 Tagen mit dem Vormastschweine-Futtergemisch SOL unter folgender Wirkstoffzugabe behandelt: • Gruppe I (Kontrollgruppe): Futtergemisch allein Gruppe II: Phthalazol, 100 ppm • Gruppe III: Cyadox, 100 ppm • Gruppe IV: Cyadox und Phthalazol, je 100 ppm.

[3] = test system: Vibrio coli; experiment: Treatment of bloody diarrhoea in pre-fattening pigs via supplemented feed (14 days); type: in vivo, Vormastschweine
From the text: Die Versuche wurden in einem Schweinemastbetrieb durchgeführt, bei dem ständig bei 5 bis 15 der Vormastschweine (Rasse BU x PC + L) von etwa 50 kg Gewicht, die in Koben zu 10 bis 15 Tieren untergebracht waren, blutige Durchfälle auftraten.
as §1

[4] = Ratten, p.o.; cited from earlier work
[5] = 100 ppm of each active in feed, 14 days

| SMILES | Zuwachsindex (%) [1] | Ausnutzungsindex (%), difference from control (in brackets) [1] | Ausnutzungsindex (%) [1] | Futtermittel-Ausnutzung, x̄ [1] | Gesamtzuwachs x̄ (kg) [2] | Endgewicht x̄ (kg) [2] | Tageszuwachs [2] | Zuwachsindex (%) [2] | Anzeichen blutiger Durchfälle [3, 5] | Heilungsgrad [3, 5] | LD50 [4] | Schweine notgeschlachtet wegen unbefriedigenden Allgemeinzustands ([3]; at end of trial, group of 20 pigs, 100 ppm) |
| --- | --- | --- | --- | --- | --- | --- | --- | --- | --- | --- | --- | --- |
| N#CCC(=O)NN=Cc1c[n+]([O-])c2ccccc2[n+]1[O-] [Cyadox, 2-Formylchinoxalin-1,4-dioxy-cyanacetyl-hydrazon] | 109,8% | -0,5% | 99,5% | 1,99 | 10,10 kg | 57,90 kg | 721 g | 112,8% | keine Anzeichen blutiger Durchfälle | 100 | 15000 mg/kg |  |
| O=C(O)c1ccccc1C(=O)Nc1ccc(S(=O)(=O)Nc2nccs2)cc1 [Phthalazol] |  |  |  |  | 8,99 kg | 59,61 kg | 642 g | 100,5% |  |  |  | 5 |
| CC[C@H]1OC(=O)C[C@@H](O)[C@H](C)[C@@H](O[C@@H]2O[C@H](C)[C@@H](O[C@H]3C[C@@](C)(O)[C@@H](O)[C@H](C)O3)[C@H](N(C)C)[C@H]2O)[C@@H](CC=O)C[C@@H](C)C(=O)/C=C/C(C)=C/[C@@H]1CO[C@@H]1O[C@H](C)[C@@H](O)[C@@H](OC)[C@H]1OC [Tylosin] | 125,9% | -7,8% | 92,2% | 1,90 |  |  |  |  |  |  |  |  |
